Assay results reported in patent US7803793B2, “Heterocyclic derived metalloprotease inhibitors” (Janssen Pharmaceutica NV, priority 2006, dated 2010).
Like-named read-outs stand apart in the source and are kept apart here.

Assays:
MMP-2 = molecular target: T1, MMP-2 (Homo sapiens, UniProt P08253); assay: MMP enzymatic assay (Trupoint peptide), MMP-2; format: biochemical
T1 construct: Human MMP-2 full length (aa 1-660)
T1 sequence (P08253 30-660): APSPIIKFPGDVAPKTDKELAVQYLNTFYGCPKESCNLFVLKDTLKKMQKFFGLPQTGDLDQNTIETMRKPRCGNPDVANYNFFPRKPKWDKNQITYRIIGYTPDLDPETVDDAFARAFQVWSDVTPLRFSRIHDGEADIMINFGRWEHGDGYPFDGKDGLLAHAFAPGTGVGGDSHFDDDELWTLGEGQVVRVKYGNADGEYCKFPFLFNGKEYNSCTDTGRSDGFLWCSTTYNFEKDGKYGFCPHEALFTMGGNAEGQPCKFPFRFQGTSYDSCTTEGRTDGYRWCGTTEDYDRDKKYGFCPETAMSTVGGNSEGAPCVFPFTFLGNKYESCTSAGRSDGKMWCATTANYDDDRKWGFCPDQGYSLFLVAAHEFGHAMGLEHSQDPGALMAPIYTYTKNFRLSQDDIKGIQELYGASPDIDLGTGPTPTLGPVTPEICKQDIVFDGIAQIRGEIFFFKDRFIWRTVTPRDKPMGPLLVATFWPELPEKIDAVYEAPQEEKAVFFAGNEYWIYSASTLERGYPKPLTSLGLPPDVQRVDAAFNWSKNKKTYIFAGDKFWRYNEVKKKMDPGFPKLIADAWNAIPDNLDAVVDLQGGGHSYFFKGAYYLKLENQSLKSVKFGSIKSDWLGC
Method: [formula] • 1) Prepare appropriate 1×MMP assay buffer from 10× stock. […] Need to prepare a 2.5× concentration stock (2.5 μM) to achieve this concentration in 50 μl. Dilute compound to 2.5 mM in 100% DMSO (a 1:40 dilution), then dilute the 2.5 mM compound to 2.5 μM (1:1000) into 1× assay buffer. Make 1 ml 2.5 μM compound in assay buffer. • 4) Fill the rows B through P of a 384-well plate with assay buffer+0.1% DMSO. • 5) Add 30 ul of the 2.5 μM compound in assay buffer to the top row of the plate, doing each compound in triplicate. The plate setup should be as follows, using GM6001 as plate reference compound:
• 6) Serially dilute 10 μl down the plate to achieve 1:3 dilutions in subsequent wells. After each dilution, change pipette tips to avoid compound carryover. Discard the remaining 10 μl after diluting into the final row. • 7) Prepare enzyme dilutions at 2.5× of final desired concentration (see below). Will need 10 ml enzyme solution per plate. Add enzyme to plate, 20 μl per well. Incubate 1 hr.
• 8) Dilute the 500 μM Trupoint peptide 1:1000 into assay buffer to achieve a 5× working stock of 500 nM. Prepare 5 ml total per plate. Add 10 ul of substrate to each well to achieve a final concentration of 100 nM in well. Also prepare background subtraction wells by adding 10 μl 5× substrate to 40 μl assay buffer per well, typically do ˜32 wells. • 9) Incubate assay at room temperature for 15 min. Read in plate reader.
(§1) Analysis Specifications • Calculate average background value from substrate/assay buffer wells • Subtract this from entire plate • Calculate average of DMSO wells for each enzyme. This is the positive control, 100% value. • For each well, calculate percent of control by dividing well value by the average DMSO value obtained above. • Paste percent of control values into Graphpad Prism 4.0.

MMP-9 = molecular target: T2, MMP-9 (Homo sapiens, UniProt P14780); assay: MMP enzymatic assay (Trupoint peptide), MMP-9; format: biochemical
T2 construct: Human MMP-9 catalytic domain (aa 107-446)
T2 sequence (P14780 107-446): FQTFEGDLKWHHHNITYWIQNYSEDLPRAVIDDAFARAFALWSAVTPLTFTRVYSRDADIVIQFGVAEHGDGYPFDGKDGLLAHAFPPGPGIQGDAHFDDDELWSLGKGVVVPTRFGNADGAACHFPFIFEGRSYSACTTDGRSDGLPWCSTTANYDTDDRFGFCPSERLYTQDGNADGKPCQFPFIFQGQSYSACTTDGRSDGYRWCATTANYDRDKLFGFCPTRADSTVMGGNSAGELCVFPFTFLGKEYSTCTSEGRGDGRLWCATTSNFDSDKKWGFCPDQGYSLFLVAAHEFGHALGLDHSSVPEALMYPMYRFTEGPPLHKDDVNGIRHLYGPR
Method: [formula] • 1) Prepare appropriate 1×MMP assay buffer from 10× stock. […] The plate setup should be as follows, using GM6001 as plate reference compound:
• 6) Serially dilute 10 μl down the plate to achieve 1:3 dilutions in subsequent wells. After each dilution, change pipette tips to avoid compound carryover. […] Will need 10 ml enzyme solution per plate. Add enzyme to plate, 20 μl per well. Incubate 1 hr.
Prepare 5 ml total per plate. Add 10 ul of substrate to each well to achieve a final concentration of 100 nM in well. […] Read in plate reader.
as §1

IC50 (MMP-2) [nM] | IC50 (MMP-9) [nM] | IC50 (MMP-2; read-out: MMP-2 nM IC50) [nM] | SMILES
16.4 | 17.2 | – | O=C1C(N(CCN2CCOCC2)S(=O)(=O)c2ccc(-c3ccc(Cl)cc3)s2)CC=CCN1O (stereo not shown) [Compound 93]
– | 522 | 185 | COc1ccc(-c2ccc(S(=O)(=O)Cn3cccc(O)c3=O)s2)cc1 [Compound 64, 3-Hydroxy-1-[5-(4-methoxy-phenyl)-thiophene-2-sulfonylmethyl]-1H-pyridin-2-one]
2550 | 223 | – | Cc1ccc(Oc2ccc(N(C(C)c3cccn(O)c3=O)S(C)(=O)=O)cc2)cc1 (stereo not shown) [Compound 50, N-[1-(1-Hydroxy-2-oxo-1,2-dihydro-pyridin-3-yl)-ethyl]-N-(4-p-tolyloxy-phenyl)-methanesulfonamide]
– | 1.3 | 1.7 | CN1CCN(CCN(c2cccn(O)c2=O)S(=O)(=O)c2ccc(Oc3ccc(Cl)cc3)cc2)CC1 [Compound 99]
4.2 | 8.6 | – | Cc1ccc(-c2ccc(S(=O)(=O)N[C@@H]3CC=CCN(O)C3=O)s2)cc1 [Compound 90]
– | 45.8 | 16.7 | Cc1ccc(Oc2ccc(S(=O)(=O)Cn3cccc(O)c3=O)cc2)cc1 [Compound 61, 3-Hydroxy-1-(4-p-tolyloxy-benzenesulfonylmethyl)-1H-pyridin-2-one]
241 | 43.9 | – | Cc1ccc(Oc2ccc(N(Cc3cc(C)cn(O)c3=O)S(C)(=O)=O)cc2)cc1 [Compound 51, N-(1-Hydroxy-5-methyl-2-oxo-1,2-dihydro-pyridin-3-ylmethyl)-N-(4-p-tolyloxy-phenyl)-methanesulfonamide]
46.7 | 30.6 | – | O=C1[C@H](CS(=O)(=O)c2ccc(Oc3ccccc3)cc2)NCCCN1O [Compound 69, (3R)-1-Hydroxy-3-(4-phenoxy)benzenesulfonylmethyl-1,4-diazepan-2-one]
– | 4.2 | 5 | O=c1c(N(CCN2CCOCC2)S(=O)(=O)c2ccc(Oc3ccc(Cl)cc3)cc2)cccn1O [Compound 87, 4-(4-Chloro-phenoxy)-N-(1-hydroxy-2-oxo-1,2-dihydro-pyridin-3-yl)-N-(2-morpholin-4-yl-ethyl)-benzenesulfonamide]
– | 7.26 | 17.3 | COc1ccc(Oc2ccc(S(=O)(=O)Cc3cccn(O)c3=O)cc2)cc1 [Compound 97]
> 1000 | > 1000 | – | Cc1ccc(-c2ccc(S(=O)(=O)C3CCCCN(O)C3=O)cc2)cc1 (stereo not shown) [Compound 86, 1-Hydroxy-3-(4′-methyl-biphenyl-4-sulfonyl)-azepan-2-one]
> 1000 | 668 | – | O=c1c(O)cccn1CS(=O)(=O)c1ccc(Br)s1 [Compound 63, 1-(5-Bromo-thiophene-2-sulfonylmethyl)-3-hydroxy-1H-pyridin-2-one]
– | 4.9 | 6.1 | O=c1c(N(CCN2CCSCC2)S(=O)(=O)c2ccc(Oc3ccc(Cl)cc3)cc2)cccn1O [Compound 98]
3.7 | 5.9 | – | O=C1C(NS(=O)(=O)c2ccc(Oc3ccc(Cl)cc3)cc2)CCCCN1O (stereo not shown) [Compound 92]
> 1000 | > 1000 | – | O=C1C(S(=O)(=O)c2ccc(-c3ccc(Cl)cc3)cc2)CCCCN1O (stereo not shown) [Compound 82, 3-(4′-Chloro-biphenyl-4-sulfonyl)-1-hydroxy-azepan-2-one]
> 1000 | > 1000 | – | COc1ccc2[nH]c(-c3ccc(S(=O)(=O)C4CCCCN(O)C4=O)cc3)nc2c1 (stereo not shown) [Compound 77, 1-Hydroxy-3-[4-(5-methoxy-1H-benzoimidazol-2-yl)-benzenesulfonyl]-azepan-2-one]

Further lines, the compound ahead of its results:

SMILES | IC50 (MMP-2) [nM] | IC50 (MMP-9) [nM] | IC50 (MMP-2; read-out: MMP-2 nM IC50) [nM]
CCCCc1ccc(N(Cc2cccn(O)c2=O)S(C)(=O)=O)cc1 [Compound 45, N-(4-Butyl-phenyl)-N-(1-hydroxy-2-oxo-1,2-dihydro-pyridin-3-ylmethyl)-methane-sulfonamide] | > 1000 | > 1000 | –
COc1ccc(-c2ccc(S(=O)(=O)N[C@@H]3CC=CCN(O)C3=O)s2)cc1 [Compound 17, 5-(4-Methoxy-phenyl)-thiophene-2-sulfonic acid (1-hydroxy-2-oxo-2,3,4,7-tetrahydro-1H-azepin-3-(R)-yl)-amide] | 3.9 | 10.7 | –
CS(=O)(=O)N(Cc1cccn(O)c1=O)c1ccc(Oc2ccc(C(F)(F)F)cc2)cc1 [Compound 43, N-(1-Hydroxy-2-oxo-1,2-dihydro-pyridin-3-ylmethyl)-N-[4-(4-trifluoromethyl-phenoxy)-phenyl]-methanesulfonamide] | 491 | 233 | –
O=C1[C@H](NS(=O)(=O)c2ccc(Oc3ccncc3)cc2)CC=CCN1O [Compound 6, N-(1-Hydroxy-2-oxo-2,3,4,7-tetrahydro-1H-azepin-3-(R)-yl)-4-(pyridin-4-yloxy)-benzenesulfonamide] | 2.67 | 15.9 | –
O=C1[C@H](NS(=O)(=O)c2ccc(N3CCN(c4ccccc4)CC3)cc2)CC=CCN1O [Compound 10, N-(1-Hydroxy-2-oxo-2,3,4,7-tetrahydro-1H-azepin-3-(R)-yl)-4-(4-phenyl-piperazin-1-yl)-benzenesulfonamide] | > 1000 | > 1000 | –
CN(c1cccn(O)c1=O)S(=O)(=O)c1ccc(Oc2ccccc2)cc1 [Compound 25, N-(1-Hydroxy-2-oxo-1,2-dihydro-pyridin-3-yl)-N-methyl-4-phenoxy-benzene-sulfonamide] | 1.52 | 1.41 | –
Cc1ccc(Oc2ccc(N(Cc3cccn(O)c3=O)S(C)(=O)=O)cc2)cc1 [Compound 42, N-(1-Hydroxy-2-oxo-1,2-dihydro-pyridin-3-ylmethyl)-N-(4-p-tolyloxy-phenyl)-methanesulfonamide] | 208 | 46.9 | –
O=C1[C@H](N(CCN2CCOCC2)S(=O)(=O)c2ccc(Oc3ccc(Cl)cc3)cc2)CC=CCN1O [Compound 11, 4-(4-Chloro-phenoxy)-N-(1-hydroxy-2-oxo-2,3,4,7-tetrahydro-1H-azepin-3-(R)-yl)-N-(2-morpholin-4-yl-ethyl)-benzenesulfonamide] | 0.31 | 0.2 | –
O=c1c(NS(=O)(=O)c2ccc(-c3ccc(Cl)cc3)cc2)cccn1O [Compound 40, 4′-Chloro-biphenyl-4-sulfonic acid (1-hydroxy-2-oxo-1,2-dihydro-pyridin-3-yl)-amide] | > 1000 | > 1000 | –
O=C1[C@H](NS(=O)(=O)c2ccc(N3CCC(c4ccccc4)CC3)cc2)CC=CCN1O [Compound 9, N-(1-Hydroxy-2-oxo-2,3,4,7-tetrahydro-1H-azepin-3-(R)-yl)-4-(4-phenyl-piperidin-1-yl)-benzenesulfonamide] | > 1000 | > 1000 | –
CCN(c1cccn(O)c1=O)S(=O)(=O)c1ccc(Oc2ccc(C)cc2)cc1 [Compound 27, N-Ethyl-N-(1-hydroxy-2-oxo-1,2-dihydro-pyridin-3-yl)-4-p-tolyloxy-benzene-sulfonamide] | 6.5 | 3.6 | –
O=C(CN(c1cccn(O)c1=O)S(=O)(=O)c1ccc(Oc2ccc(Cl)cc2)cc1)N1CCOCC1 [Compound 35, 4-(4-Chloro-phenoxy)-N-(1-hydroxy-2-oxo-1,2-dihydro-pyridin-3-yl)-N-(2-morpholin-4-yl-2-oxo-ethyl)-benzenesulfonamide] | – | 4.84 | 4.93
O=c1c(N(Cc2ccccc2)S(=O)(=O)c2ccc(Oc3ccccc3)cc2)cccn1O [Compound 22, N-Benzyl-N-(1-hydroxy-2-oxo-1,2-dihydro-pyridin-3-yl)-4-phenoxy-benzene-sulfonamide] | – | 33.4 | 22.4
